Experimental data reported in patent US20130253012A1, “Pyrazole Compounds for Controlling Invertebrate Pests” (BASF SE, priority 2010, published 2013).

How the values were obtained:
Type in all cases: in vivo
[1] = test system: Cotton Aphid (Aphis gossypii, Mixed Life Stages); experiment: Cotton aphid, method b) (electrostatic spray); conditions: 120 h, infested cotton plants sprayed, after 5 days, read-out: mortality in comparison with untreated controls
Description: (§1) II.1 Cotton Aphid (Aphis gossypii, Mixed Life Stages)
(§2) The active compounds were formulated in cyclohexanone as a 10,0000 ppm solution supplied in 1.3 ml ABgene® tubes. These tubes were inserted into an automated electrostatic sprayer equipped with an atomizing nozzle and they served as stock solutions for which lower dilutions were made in 50% acetone:50% water (v/v). A nonionic surfactant (Kinetic®) was included in the solution at a volume of 0.01% (v/v).
Cotton plants at the cotyledon stage were infested with aphids prior to treatment by placing a heavily infested leaf from the main aphid colony on top of each cotyledon. Aphids were allowed to transfer overnight to accomplish an infestation of 80-100 aphids per plant and the host leaf was removed. The infested plants were then sprayed by an automated electrostatic plant sprayer equipped with an atomizing spray nozzle. The plants were dried in the sprayer fume hood, removed from the sprayer, and then maintained in a growth room under fluorescent lighting in a 24 hour photoperiod at 25° C. and 20-40% relative humidity. Aphid mortality on the treated plants, relative to mortality on untreated control plants, was determined after 5 days.

[2] = test system: Green Peach Aphid (Myzus persicae, Mixed Life Stages); experiment: Green peach aphid, method b) (electrostatic spray, bell pepper plants); conditions: 120 h, infested bell pepper plants sprayed, after 5 days, read-out: mortality in comparison with untreated controls
Description: (§3) II.2 Green Peach Aphid (Myzus persicae, Mixed Life Stages)
as §2
Bell pepper plants at the first true-leaf stage were infested prior to treatment by placing heavily infested leaves from the main colony on top of the treatment plants. Aphids were allowed to transfer overnight to accomplish an infestation of 30-50 aphids per plant and the host leaves were removed. The infested plants were then sprayed by an automated electrostatic plant sprayer equipped with an atomizing spray nozzle. The plants were dried in the sprayer fume hood, removed, and then maintained in a growth room under fluorescent lighting in a 24 hour photoperiod at 25° C. and 20-40% relative humidity. Aphid mortality on the treated plants, relative to mortality on untreated control plants, was determined after 5 days.

[3] = test system: Cotton Aphids (Aphis gossypii); experiment: Hydroponic test against cotton aphids (bare root cotton plants); conditions: bare roots immersed 24 hours, assay 3 days, read-out: mortality in comparison with untreated controls
Description: II.10 Activity in the Hydroponic Tests Against Cotton Aphids (Aphis gossypii)
(§4) Cotton plants (Gossypium hirsutum, variety ‘Sure Grow 747’) were grown in the greenhouse from seed to the second true leaf stage (BBCH 12) in Scott's Metro-Mix® 360 (1 to 2 plants per 2¼″ square pot). Cotyledon leaves were removed and roots were rinsed in tap water until free of soil. The roots were kept moist under a layer of wet paper toweling until all plants had been prepared.
(§5) A 3,400 ppm stock solution was prepared of each test compound using reagent grade acetone as the solvent. Subsequent dilutions of 100 and 10 ppm were prepared from this stock with final dilutions in deionized water in 100 ml amber glass bottles. One bare root plant was placed in each bottle using a foam plug section to centrally secure the stem in the bottleneck. The bare roots were fully-immersed in the test suspensions. Host plants were placed in a plant growth room under continuous GroLux® fluorescent lighting (40 Watt), for 24 hours at 25±2° C. and 20-40% relative humidity.
After exposure of the bare roots to the test suspensions, pieces of cotton plants infested with cotton aphids (Aphis gossypi) were placed on top of the test foliage. Insects were allowed to transfer from the host leaves to accomplish an infestation of 40-50 insects per plant. […] Phytotoxic responses of the host plants were also recorded at this time.

[4] = test system: Cowpea Aphid (Aphis craccivora); experiment: Cowpea aphid, sprayed potted cowpea plants; conditions: assessed after 24, 72 and 120 hours, read-out: mortality in comparison with untreated controls
Description: II.3 Cowpea Aphid (Aphis craccivora)
The active compounds were formulated in 50:50 (v/v) acetone:water. The test solution was prepared at the day of use.
Potted cowpea plants colonized with 100-150 aphids of various stages were sprayed after the pest population had been recorded. Population reduction was assessed after 24, 72, and 120 hours.

[5] = test system: Vetch Aphid (Megoura viciae); experiment: Vetch aphid, bean leaf disks in microtiterplates; conditions: foliar, 144 h, test solution 2500 mg/L, bean leaf disks sprayed with 2.5 μl, 6 days
Description: II.4 Vetch Aphid (Megoura viciae)
The active compounds were formulated in 1:3 (v/v) DMSO:water with different concentrations of formulated compounds.
Bean leaf disks were placed into microtiterplates filled with 0.8% agar-agar and 2.5 ppm OPUS™. The leaf disks were sprayed with 2.5 μl of the test solution and 5 to 8 adult aphids were placed into the microtiterplates which were then closed and kept at 23±1° C. and 50±5% relative humidity under fluorescent light for 6 days. Mortality was assessed on the basis of vital, reproduced aphids. Aphid mortality and fecundity was then visually assessed.

[6] = test system: Green Peach Aphids (Myzus persicae); experiment: Hydroponic test against green peach aphids (bare root pepper plants); conditions: bare roots immersed 24 hours, assay 3 days, read-out: mortality in comparison with untreated controls
Description: II.9 Activity in the Hydroponic Tests Against Green Peach Aphids (Myzus persicae)
as §4, with “Green pepper” for “Cotton”, “(Capsicum annuum L.,” for “(Gossypium hirsutum,”, “‘California Wonder’)” for “‘Sure Grow 747’)”
as §5
After exposure of the bare roots to the test suspensions, pieces of pepper plants infested with green peach aphid (Myzus persicae) were placed on top of the test foliage. Insects were allowed to transfer from the host leaves to accomplish an infestation of 40-50 insects per plant. The assay was allowed to run for 3 days in the same growth room as used previously. Assessments included estimates of aphid population density reduction relative to the average density of aphids on the untreated control plants. Phytotoxic responses of the host plants were also recorded at this time.

[7] = test system: Silverleaf Whitefly (Bemisia argentifolii, Adult); experiment: Silverleaf whitefly, sprayed cotton plants; conditions: 72 h, 3 days after treatment, read-out: mortality in comparison with untreated controls
Description: II.7 Silverleaf Whitefly (Bemisia argentifolii, Adult)
as §2
Cotton plants at the cotyledon stage (one plant per pot) were sprayed by an automated electrostatic plant sprayer equipped with an atomizing spray nozzle. The plants were dried in the sprayer fume hood and then removed from the sprayer. Each pot was placed into a plastic cup and 10 to 12 whitefly adults (approximately 3-5 days old) were introduced. The insects were collected using an aspirator and 0.6 cm, nontoxic Tygon® tubing (R-3603) connected to a barrier pipette tip. The tip, containing the collected insects, was then gently inserted into the soil containing the treated plant, allowing insects to crawl out of the tip to reach the foliage for feeding. Cups were covered with a reusable screened lid (150-micron mesh polyester screen PeCap from Tetko, Inc.). […] Mortality was assessed 3 days after treatment, compared to untreated control plants.

[8] = test system: Green Peach Aphid (Myzus persicae); experiment: Green peach aphid through systemic means, artificial diet under membrane; conditions: 72 h, pipetted into aphid diet, 3 days, read-out: mortality in comparison with untreated controls
Description: II.6 Activity Against Green Peach Aphid (Myzus persicae)
For evaluating control of green peach aphid (Myzus persicae) through systemic means the test unit consisted of 96-well-microtiter plates containing liquid artificial diet under an artificial membrane.
The compounds were formulated using a solution containing 75% v/v water and 25% v/v DMSO. Different concentrations of formulated compounds were pipetted into the aphid diet, using a custom built pipetter, at two replications. After application, 5 to 8 adult aphids were placed on the artificial membrane inside the microtiter plate wells. The aphids were then allowed to suck on the treated aphid diet and incubated at about 23+1° C. and about 50+5% relative humidity for 3 days. Aphid mortality and fecundity was then visually assessed.

[9] = test system: Boll Weevil (Anthonomus grandis); experiment: Boll weevil, insect diet with eggs in 24-well microtiter plates; conditions: 120 h, test solution 2500 mg/L, 20 μl sprayed onto insect diet, 5 days, read-out: mortality (egg and larval)
Description: II.5 Boll Weevil (Anthonomus grandis)
The compounds were formulated in 75:25 (v/v) water:DMSO.
For evaluating control of boll weevil (Anthonomus grandis) the test unit consisted of 24-well-microtiter plates containing an insect diet and 20-30 A. grandis eggs. Different concentrations of formulated compounds were sprayed onto the insect diet at 20 μl, using a custom built micro atomizer, at two replications. After application, the microtiter plates were incubated at 23±1° C. and 50±5% relative humidity for 5 days. Egg and larval mortality was then visually assessed.

[10] = test system: Green Peach Aphid (Myzus persicae, Mixed Life Stages); experiment: Green peach aphid, method a) (leaf dip, pepper plants); conditions: 300 ppm; pepper plant leaves dipped; after 5 days
Description: as §3
(§6) The active compounds were formulated in 50:50 (v/v) acetone:water and 100 ppm nonionic surfactant (Kinetic®).
Pepper plants in the 2nd leaf-pair stage (variety ‘California Wonder’) were infested with approximately 40 laboratory-reared aphids by placing infested leaf sections on top of the test plants. The leaf sections were removed after 24 hours. The leaves of the intact plants were dipped into gradient solutions of the test compound and allowed to dry. Test plants were maintained under fluorescent light (24 hour photoperiod) at about 25° C. and 20-40% relative humidity. Aphid mortality on the treated plants, relative to mortality on check plants, was determined after 5 days.

[11] = test system: Cotton Aphid (Aphis gossypii, Mixed Life Stages); experiment: Cotton aphid, method a) (cotyledon dip); conditions: 300 ppm; cotton cotyledons dipped; counts after 5 days
Description: as §1, §6
Cotton plants at the cotyledon stage (one plant per pot) were infested by placing a heavily infested leaf from the main colony on top of each cotyledon. The aphids were allowed to transfer to the host plant overnight, and the leaf used to transfer the aphids was removed. The cotyledons were dipped in the test solution and allowed to dry. After 5 days, mortality counts were made.

## Cc1c(-c2nccn2-c2cccnc2)cnn1CC(F)(F)F [Example 20, 3-{2-[5-Methyl-1-(2,2,2-trifluoroethyl)-1H-pyrazol-4-yl]imidazol-1-yl}pyridine]
[1]
  mortality at 300 ppm: ≥ 75%
[2]
  mortality at 300 ppm: ≥ 75%
[3]
  mortality at 100 ppm: ≥ 75%
[4]
  mortality at 500 ppm: ≥ 75%
[5]
  mortality at 2500 µg/mL: ≥ 90%
[6]
  mortality at 100 ppm: ≥ 75%
[7]
  mortality at 500 ppm: ≥ 75%
[8]
  mortality at 2500 ppm: 100%

## Cc1c(-c2nc(-c3cccnc3)co2)cnn1CC(F)(F)F [Example 4, 3-{2-[5-Methyl-1-(2,2,2-trifluoroethyl)-1H-pyrazol-4-yl]-oxazol-4-yl}pyridine]
[5]
  mortality at 2500 µg/mL: ≥ 90%

## Cc1c(-c2noc(=O)n2-c2cccnc2)cnn1CC(F)(F)F [Example 39, 3-{3-[5-Methyl-1-(2,2,2-trifluoroethyl)-1H-pyrazol-4-yl]-4H-[1,2,4]oxadiazol-5-on-4-yl}pyridine]
[4]
  mortality at 500 ppm: ≥ 75%
[5]
  mortality at 2500 µg/mL: ≥ 90%
[8]
  mortality at 2500 ppm: 100%

## Cc1c(-c2nncn2-c2cccnc2)cnn1CC(F)(F)F [Example 2, 3-{3-[5-Methyl-1-(2,2,2-trifluoroethyl)-1H-pyrazol-4-yl]-[1,2,4]triazol-4-yl}pyridine]
[4]
  mortality at 500 ppm: ≥ 75%

## Cc1c(C2=NCCN2c2cccnc2)cnn1CC(F)(F)F [Example 18, 3-{2-[5-Methyl-1-(2,2,2-trifluoroethyl)-1H-pyrazol-4-yl]-4,5-dihydroimidazol-1-yl}pyridine]
[1]
  mortality at 300 ppm: ≥ 75%
[2]
  mortality at 300 ppm: ≥ 75%
[3]
  mortality at 100 ppm: ≥ 75%
[4]
  mortality at 500 ppm: ≥ 75%
[6]
  mortality at 100 ppm: ≥ 75%
[8]
  mortality at 2500 ppm: 100%

## Cc1c(-c2nnc(-c3cccnc3)s2)cnn1CC(F)(F)F [Example 15, 3-{5-[5-Methyl-1-(2,2,2-trifluoroethyl)-1H-pyrazol-4-yl]-[1,3,4]thiadiazol-2-yl}pyridine]
[1]
  mortality at 300 ppm: ≥ 75%
[9]
  mortality at 2500 µg/mL: ≥ 50%
[2]
  mortality at 300 ppm: ≥ 75%
[4]
  mortality at 500 ppm: ≥ 75%
[5]
  mortality at 2500 µg/mL: ≥ 90%
[6]
  mortality at 100 ppm: ≥ 75%
[8]
  mortality at 2500 ppm: 100%

## Cn1cc(-c2nncn2-c2cccnc2)c(C(F)(F)F)n1 [Example 1]
[10]
  mortality in comparison with untreated controls: at least 90%
[11]
  mortality in comparison with untreated controls: at least 75%

## Cc1c(-c2nc(-c3cccnc3)nn2C)cnn1CC(F)(F)F [Example 38, 3-{1-methyl-5-[5-methyl-1-(2,2,2-trifluoroethyl)-1H-pyrazol-4-yl]-1H-[1,2,4]triazol-3-yl}pyridine]
[9]
  mortality at 2500 µg/mL: ≥ 50%

## Cc1c(-c2nnc(-c3cccnc3)o2)cnn1CC(F)(F)F [Example 14, 3-{5-[5-Methyl-1-(2,2,2-trifluoroethyl)-1H-pyrazol-4-yl]-[1,3,4]oxadiazol-2-yl}pyridine]
[1]
  mortality at 300 ppm: ≥ 75%
[9]
  mortality at 2500 µg/mL: ≥ 50%
[2]
  mortality at 300 ppm: ≥ 75%
[4]
  mortality at 500 ppm: ≥ 75%
